Publication PMC6204753, “Non-native autoinducer analogs capable of modulating the SdiA quorum sensing receptor in Salmonella enterica serovar Typhimurium” (Beilstein Journal of Organic Chemistry, 2018)

Molecular target: SdiA (Salmonella enterica subsp. enterica serovar Typhimurium, UniProt O66040)
Test: S. Typhimurium-pJNS25 SdiA reporter, competitive antagonism against 10 nM L-OOHL
Type: cell-based
Conditions: for Antagonism 1 μM Inhibition (%): 1 μM compound; for Antagonism 1 μM Inhibition (%) / Antagonism 100 μM Inhibition (%): average ± STD, change in activity from 10 nM 2 (OOHL); for Antagonism 100 μM Inhibition (%): 100 μM compound
Text: Biological assays for SdiA activity. Cell-based reporter strains that rely on detecting the transcriptional activity of LuxR-type receptors are commonly used to assess the activity of exogenous ligands. We used the S. Typhimurium-pJNS25 reporter strain constructed by Smith and Ahmer and also used by Janssens et al. to examine SdiA activity. This strain naturally produces SdiA and contains a reporter plasmid with the promoter region for srgE fused to the luxABCDE operon of V. fischeri (see Experimental section for details of all strains and plasmids). SdiA activity is thus reported by the production of luciferase and resulting bioluminescence. We also prepared an SdiA reporter in E. coli (JLD271-pJN105SE-pSC11SE) to examine S. Typhimurium SdiA activity in an alternate background and with a different reporter gene output. […] This reporter construct uses an arabinose inducible promoter to produce S. Typhimurium SdiA and the promoter region for srgE fused to lacZ to report SdiA activity. SdiA activity is then measured using standard β-galactosidase assays. In both reporter strains, signal was normalized to the difference between the positive control (10 μM OOHL) and the negative control (1% DMSO; no compound).
Salmonella SdiA reporter assay. S. Typhimurium-pJNS25 was grown 16–18 h overnight in LB, diluted 1:100 in fresh LB medium, and then incubated for 6 h at 37 °C with shaking at 200 rpm in the presence of compounds (1% DMSO). […] All compounds were screened at 100 μM and 1 μM in triplicate in agonism and antagonism assays. […] Dose–response analyses were performed by preparing dilutions of compounds in DMSO and testing each concentration in the agonism or antagonism assays. Competition dose–response assays (data in Figure 5) were performed in the same manner as the antagonism assays, except instead of OOHL being added to the subculture, the antagonist being tested was added. Non-linear regression curve fits were generated using GraphPad Prism software (version 6) using variable slope (four parameter) dose–response analysis.

SdiA, sequence (O66040 entry or part of it): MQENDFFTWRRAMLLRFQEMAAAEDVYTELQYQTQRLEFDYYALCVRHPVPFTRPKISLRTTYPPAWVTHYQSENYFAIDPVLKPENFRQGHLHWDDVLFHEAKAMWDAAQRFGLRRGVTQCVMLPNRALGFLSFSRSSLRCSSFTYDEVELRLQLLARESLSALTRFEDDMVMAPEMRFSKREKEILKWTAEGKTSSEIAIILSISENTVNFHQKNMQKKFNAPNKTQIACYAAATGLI

Row | Structure (SMILES) | Antagonism 1 μM Inhibition (%) | Antagonism 100 μM Inhibition (%) | SdiA antagonism (in words) (S. Typhimurium reporter)
1 | Cc1ccc(C(=O)CCC(=O)N[C@H]2CCOC2=O)cc1 [D6] | 21 ± 19% | 3 ± 12% | –
2 | CCCCCCC(=O)N[C@H]1CCSC1=O [F6] | 5 ± 5% | -2 ± 7% | –
3 | O=C(CCc1cccc([N+](=O)[O-])c1)N[C@H]1CCOC1=O [E38] | 15 ± 11% | 32 ± 6% | –
4 | O=C(Cc1ccc(O)cc1)N[C@H]1CCOC1=O [C23] | 6 ± 2% | 16 ± 3% | –
5 | O=C(Cc1ccccc1[N+](=O)[O-])N[C@H]1CCOC1=O [C15] | 5 ± 2% | -17 ± 18% | –
6 | Cc1nc(-c2ccccc2)oc1CC(=O)N[C@H]1CCOC1=O [D4] | 28 ± 13% | -6 ± 4% | –
7 | CC(C)Oc1ccc(C(=O)N[C@H]2CCOC2=O)cc1 [R3] | 23 ± 8% | 11 ± 10% | –
8 | O=C(Cc1cc(C(F)(F)F)cc(C(F)(F)F)c1)N[C@H]1CCOC1=O [E9] | 18 ± 8% | 21 ± 8% | –
9 | O=C(N[C@H]1CCOC1=O)c1ccc(Cl)cc1 [Q4] | 30 ± 4% | -25 ± 15% | –
10 | CCCCCCCCc1ccc(C(=O)N[C@H]2CCOC2=O)cc1 [D13] | 17 ± 7% | 23 ± 7% | –
11 | COc1ccc(CCC(=O)N[C@H]2CCOC2=O)cc1 [E28] | 11 ± 18% | 6 ± 15% | –
12 | CCCCCCCCCCCC(=O)N[C@H]1CCSC1=O [F4] | -2 ± 11% | 2 ± 5% | –
13 | O=C(N[C@H]1CCOC1=O)C1CCCCC1 [S5] | 19 ± 4% | 13 ± 10% | –
14 | O=C(N[C@H]1CCOC1=O)c1ccc2c(c1)OCO2 [Q11] | 7 ± 7% | -2 ± 12% | –
15 | O=C(CC(O)Cc1cccc(I)c1)N[C@H]1CCOC1=O (stereo partly drawn) [H15] | 6 ± 14% | 19 ± 11% | –
16 | O=C(N[C@H]1CCOC1=O)c1ccc(Br)cc1 [B6] | 25 ± 11% | -14 ± 17% | –
17 | O=C(Cc1ccc(Br)cc1)N[C@H]1CCOC1=O [compound 7, reference compound] | 26 ± 9% | 21 ± 10% | –
18 | CCCCCOc1ccc(C(=O)N[C@H]2CCOC2=O)cc1 [R5] | 10 ± 18% | -1 ± 9% | –
19 | O=C(N[C@H]1CCOC1=O)c1ccc(I)cc1 [Q5] | 28 ± 10% | -14 ± 10% | –
20 | O=C(Cc1cccc([N+](=O)[O-])c1)Nc1ccccc1 [F25] | 20 ± 4% | -2 ± 14% | –

Row | Structure (SMILES) | Antagonism 1 μM Inhibition (%) | Antagonism 100 μM Inhibition (%) | SdiA antagonism (in words) (S. Typhimurium reporter)
21 | O=C(N[C@H]1CCOC1=O)c1ccccc1Br [Q1] | 2 ± 5% | -3 ± 18% | –
22 | Cc1ccc(C(=O)N[C@H]2CCOC2=O)cc1 [Q8] | 17 ± 3% | 11 ± 3% | –
23 | O=C(Cc1ccccc1)N[C@H]1CCSC1=O [F9] | -1 ± 4% | -13 ± 1% | –
24 | O=C(Cc1ccc(F)cc1)N[C@H]1CCOC1=O [C2] | 2 ± 8% | -8 ± 18% | –
25 | CCCCOc1ccc(C(=O)N[C@H]2CCOC2=O)cc1 [R4] | 23 ± 9% | 11 ± 12% | –
26 | O=C(N[C@H]1CCOC1=O)c1ccc(-c2ccccc2)cc1 [Q12] | 20 ± 9% | 26 ± 14% | –
27 | COc1cc(C(C)=O)ccc1OCC(=O)N[C@H]1CCOC1=O [D16] | 19 ± 6% | 3 ± 6% | –
28 | O=C(N[C@H]1CCOC1=O)c1ccc(F)cc1 [Q3] | 34 ± 2% | -26 ± 17% | –
29 | O=C(Cc1cccc(C(F)(F)F)c1)N[C@H]1CCOC1=O [E3] | -14 ± 16% | 5 ± 8% | –
30 | CCCC(=O)CC(=O)N[C@H]1CCOC1=O [compound 3, reference compound] | 6 ± 16% | 20 ± 2% | –
31 | O=C(CCc1ccc(C(F)(F)F)cc1)N[C@H]1CCOC1=O [compound 9, reference compound] | 32 ± 10% | 11 ± 16% | –
32 | O=C(CCc1ccc([N+](=O)[O-])cc1)N[C@H]1CCOC1=O [E37] | 34 ± 5% | 23 ± 5% | –
33 | O=C(CC(=O)N[C@H]1CCOC1=O)Cc1cccc(Cl)c1 [H23] | 12 ± 8% | 1 ± 9% | –
34 | O=C(Cc1ccc(C(F)(F)F)cc1)N[C@H]1CCOC1=O [C20] | 15 ± 10% | 8 ± 6% | –
35 | O=C(Cc1ccccc1I)N[C@H]1CCOC1=O [C12] | 9 ± 13% | -24 ± 12% | –
36 | O=C(Cc1ccc([N+](=O)[O-])cc1)N[C@H]1CCOC1=O [C13] | 24 ± 4% | 14 ± 9% | –
37 | O=C(CCCOc1ccc(Cl)cc1)N[C@H]1CCOC1=O [compound 10, reference compound] | 9 ± 12% | 5 ± 15% | –
38 | CCCCCCCCCCCCCC(O)CC(=O)N[C@H]1CCOC1=O (stereo partly drawn) [H6] | 15 ± 1% | 15 ± 13% | –
39 | CCCCCCCCCCCCCC(=O)N[C@H]1CCOC1=O [H26] | 5 ± 14% | 0 ± 8% | failed to inhibit SdiA
40 | O=C(CCc1cccc(Br)c1)N[C@H]1CCOC1=O [E31] | 13 ± 10% | 6 ± 6% | –

Row | Structure (SMILES) | Antagonism 1 μM Inhibition (%) | Antagonism 100 μM Inhibition (%) | SdiA antagonism (in words) (S. Typhimurium reporter)
41 | CCCCCCCCCC(=O)CC(=O)N[C@H]1CCOC1=O [compound 1, reference compound] | 2 ± 17% | 15 ± 16% | –
42 | O=C(Cc1cccc([N+](=O)[O-])c1)NC1CCCC1 [F18] | 4 ± 6% | 15 ± 3% | –
43 | CCOc1ccc(CC(=O)N[C@H]2CCOC2=O)cc1 [C25] | 12 ± 8% | 7 ± 5% | –
44 | O=C(N[C@H]1CCOC1=O)c1cccc(Br)c1 [Q2] | 17 ± 2% | 9 ± 13% | –
45 | COc1ccccc1C1CCN(c2ccc(/C=C/C(=O)N[C@H]3CCOC3=O)cc2[N+](=O)[O-])CC1 [D18] | 18 ± 8% | 32 ± 5% | –
46 | O=C(Cc1ccc(Cl)cc1)N[C@H]1CCOC1=O [C5] | 13 ± 6% | 18 ± 7% | –
47 | CCCCCCC(=O)N[C@H]1CCOC1=O [compound 4, reference compound] | 26 ± 4% | 16 ± 5% | –
48 | O=C(NCc1cc(Br)cc(Br)c1OC(=O)c1ccccc1[N+](=O)[O-])c1ccccc1Cl [19P, reference compound] | 39 ± 16% | 25 ± 16% | –
49 | O=C(Cc1ccc2ccccc2c1)N[C@H]1CCOC1=O [E12] | -13 ± 9% | 0 ± 15% | –
50 | O=C(N[C@H]1CCOC1=O)c1ccc([N+](=O)[O-])cc1 [Q7] | 28 ± 7% | 20 ± 9% | –
51 | CCCCCCCCCC(=O)CC(=O)Nc1cccc(OC)c1 [compound 14, reference compound] | 22 ± 19% | 12 ± 8% | –
52 | O=C(Cc1c(F)c(F)c(F)c(F)c1F)N[C@H]1CCOC1=O [C16] | 5 ± 3% | -32 ± 18% | –
53 | O=C(Cc1cccc(F)c1)N[C@H]1CCOC1=O [C3] | -1 ± 15% | -18 ± 12% | –
54 | CC(C)(C)OC(=O)Nc1ccc(C(=O)N[C@H]2CCOC2=O)cc1 [Q13] | 19 ± 8% | -14 ± 2% | –
55 | COc1cccc(CC(=O)N[C@H]2CCOC2=O)c1 [E2] | -5 ± 1% | -8 ± 14% | –
56 | O=C(CCCc1ccccc1)N[C@H]1CCOC1=O [compound 6, reference compound] | 31 ± 6% | 21 ± 10% | –
57 | [N-]=[N+]=Nc1ccc(CC(=O)N[C@H]2CCOC2=O)cc1 [C17] | 13 ± 11% | 9 ± 6% | –
58 | O=C(N[C@H]1CCOC1=O)C1CCCC1 [S4] | 27 ± 11% | -8 ± 11% | –
